The values below come from patent US8772504B2, “Substituted benzoxazole, benzimidazole, oxazolopyridine and imidazopyridine derivatives as gamma secretase modulators” (Janssen Pharmaceuticals, Inc., priority 2009, dated 2014).

Some results are limits rather than exact numbers.

By melting point is commonly meant the temperature, or range, at which the solid turns liquid. One may read the IC50 as the concentration needed to halve the response being measured.

For series [1], the system named is Aβ42. Put plainly: Screening for γ-secretase-modulating activity, Method 1: Aβ42 sandwich ELISA on SKNBE2 cell media. It is filed as cell-based. Particulars: Homo sapiens, SKNBE2 cells carrying APP 695 wild type. The method in brief: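 SKNBE2 cells expressing wild-type APP695 were treated with compound for 18 h in Ultraculture/1% glutamine. Secreted Aβ42 was quantified by sandwich ELISA (C-terminal capture, biotinylated 3D6, TMB, 450 nm), with WST-1 used as a toxicity check. IC50 was derived from 4-parameter fits of % inhibition or % of untreated control.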
(ELISA stands for enzyme-linked immunosorbent assay.)

In series [2] the test system is Aβtotal. Put plainly: In vivo efficacy Method 1: brain soluble Aβtotal by ELISA. Also noted: species or system mouse. The following applies: Table 4a, single oral dose, overnight fasted animals, sacrificed after 4 h, soluble fraction of brain homogenates. From the text: (§1) To determine whether acute administration of an Aβ42 lowering agent would reduce Aβ42 levels in vivo, non-transgenic rodents, e.g. mice or rats were used. Alternatively, two to three month old Tg2576 mice expressing APP695 containing the “Swedish” variant can be used or a transgenic mouse model developed by Dr. Fred Van Leuven (K.U. Leuven, Belgium) and co-workers, with neuron-specific expression of a clinical mutant of the human amyloid precursor protein [V717I] […] Young transgenic mice have high levels of Aβ in the brain but no detectable Aβ deposition. At approximately 6-8 months of age, the transgenic mice start to display spontaneous, progressive accumulation of β-amyloid (Aβ) in the brain, eventually resulting in amyloid plaques within the subiculum, hippocampus and cortex. Animals treated with the Aβ42 lowering agent were examined and compared to those untreated or treated with vehicle and brain levels of soluble Aβ42 and total Aβ would be quantitated by standard techniques, for example, using ELISA.
(§2) A typical protocol for measuring Aβ42 lowering in vivo is shown but it is only one of many variations that could be used to optimize the levels of detectable Aβ. For example, Aβ42 lowering compounds were formulated in 20% of Captisol® (a sulfobutyl ether of β-cyclodextrin) in water or 20% hydroxypropyl β cyclodextrin. The Aβ42 lowering agents were administered as a single oral dose or by any acceptable route of administration to overnight fasted animals. After 4 h, the animals were sacrificed and Aβ42 levels were analysed.
(§3) Blood was collected by decapitation and exsanguinations in EDTA-treated collection tubes. Blood was centrifuged at 1900 g for 10 minutes (min) at 4° C. and the plasma recovered and flash frozen for later analysis. The brain was removed from the cranium and hindbrain. The cerebellum was removed and the left and right hemisphere were separated. The left hemisphere was stored at −18° C. for quantitative analysis of test compound levels. The right hemisphere was rinsed with phosphate-buffered saline (PBS) buffer and immediately frozen on dry ice and stored at −80° C. until homogenization for biochemical assays.
(§4) All samples were sonicated for 30 seconds on ice at 20% power output (pulse mode). Homogenates were centrifuged at 221.300×g for 50 min. The resulting high speed supernatants were then transferred to fresh tubes and were optionally further purified before the next step. A portion of the supernatant was neutralized with 10% 0.5 M Tris-HCl and this was used to quantify Aβtotal.
The obtained supernatants were purified with Water Oasis HLB reverse phase columns (Waters Corp., Milford, Mass.) to remove non-specific immunoreactive material from the brain lysates prior subsequent Aβ detection. Using a vacuum manifold, all solutions were passed through the columns at a rate of approximately 1 ml per min, so the vacuum pressure was adjusted accordingly throughout the procedure. Columns were preconditioned with 1 ml of 100% MeOH, before equilibration with 1 ml of H2O, Non-neutralized brain lysates were loaded onto the columns. The loaded samples were then washed twice with the first wash performed with 1 ml of 5% MeOH, and the second wash with 1 ml of 30% MeOH. Finally, the Aβ was eluted from the columns and into 100×30 mm glass tubes, with a solution of 90% MeOH with 2% NH4OH. The eluate was then transferred into 1.5 ml tubes and concentrated in a speed-vac concentrator on high heat for about 1.5-2 h at 70° C. The concentrated Aβ was then resuspended in UltraCULTURE General Purpose Serum-Free Medium (Cambrex Corp., Walkersville, Md.) plus Protease Inhibitors added. […]

Series [3] concerns Aβtotal. Put plainly: Screening for γ-secretase-modulating activity, Method 1: Aβtotal sandwich ELISA on SKNBE2 cell media. The following applies: Homo sapiens, SKNBE2 cells carrying APP 695 wild type. It is filed as cell-based. The gist of the method:
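SKNBE2 cells expressing wild-type APP 695 were treated with compound for 18 hours. Aβtotal in the medium was measured by sandwich ELISA (6E10 capture, biotinylated 4G8 detection, fluorogenic peroxidase read-out). IC50 came from a 4-parameter fit of % inhibition with top/bottom fixed at 100/0 and Hill slope 1, or as averaged IC50 from % of untreated control.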

The test system of series [4] is Aβ42. Put plainly: In vivo efficacy Method 1: brain soluble Aβ42 by ELISA. Also on record: species or system mouse. The following applies: Table 4a, single oral dose, overnight fasted animals, sacrificed after 4 h, soluble fraction of brain homogenates.
Text: as §1, §2, §3, §4
The obtained supernatants were purified with Water Oasis HLB reverse phase columns (Waters Corp., Milford, Mass.) to remove non-specific immunoreactive material from the brain lysates prior subsequent Aβ detection. Using a vacuum manifold, all solutions were passed through the columns at a rate of approximately 1 ml per min, so the vacuum pressure was adjusted accordingly throughout the procedure. Columns were preconditioned with 1 ml of 100% MeOH, before equilibration with 1 ml of H2O, Non-neutralized brain lysates were loaded onto the columns. The loaded samples were then washed twice with the first wash performed with 1 ml of 5% MeOH, and the second wash with 1 ml of 30% MeOH. Finally, the Aβ was eluted from the columns and into 100×30 mm glass tubes, with a solution of 90% MeOH with 2% NH4OH. The eluate was then transferred into 1.5 ml tubes and concentrated in a speed-vac concentrator on high heat for about 1.5-2 h at 70° C. The concentrated Aβ was then resuspended in UltraCULTURE General Purpose Serum-Free Medium (Cambrex Corp., Walkersville, Md.) plus Protease Inhibitors added.
To quantify the amount of Aβ42 in the soluble fraction of the brain homogenates, commercially available Enzyme-Linked-Immunosorbent-Assay (ELISA) kits were used (e.g. Innotest® β-Amyloid(1-42), Innogenetics N.V., Ghent, Belgium). The Aβ42 ELISA was performed using the plate provided with the kit only.

Series [5] concerns Aβtotal. Put plainly: Screening for γ-secretase-modulating activity, Method 2: Aβtotal Alphalisa on SKNBE2 cell supernatant. It is filed as cell-based. The following applies: Homo sapiens, Method 2, Table 3c, SKNBE2 cells carrying APP 695 wild type, overnight incubation. The gist of the method: (§5)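 SKNBE2 cells expressing wild-type APP695, plated at 10^4 cells/well with compound at several concentrations and incubated overnight at 37° C. Aβ42 (C-terminal capture, N-terminal biotinylated detection) and Aβtotal (N-terminal/4G8 pair) measured in supernatant by AlphaLISA. IC50 from 4-parameter fit of percent of compound-free control.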
Background: Bead proximity is the source of the signal in Alpha formats.

Series [6] has as its system Aβ42. Put plainly: Screening for γ-secretase-modulating activity, Method 2: Aβ42 Alphalisa on SKNBE2 cell supernatant. Particulars: Homo sapiens, Method 2, Table 3c, SKNBE2 cells carrying APP 695 wild type, overnight incubation. It is filed as cell-based. The gist of the method: as §5
Series [7] concerns T1, Notch-processing activity of the γ-secretase-complex.
T1 construct: average IC50 Notch cell-based assay (luciferase readout); other: N2-CHO/DL-CHO co-culture 16 h; five-point curve 3 μM-
Put plainly: Notch cell-based assay (N2-CHO/DL-CHO co-culture, Dual-Glo luciferase). Also on record: species or system mouse. Particulars: N2-CHO/DL-CHO co-culture 16 h; read-out: average IC50 Notch cell-based assay (luciferase readout). From the text: The Notch cell-based assay was based on the interaction of Notch and its ligand in a co-culture system and utilized the Dual-Glo Luciferase Assay System (Promega) to monitor NICD production. 2 stable cell lines, N2-CHO and DL-CHO, were established to express full-length mouse Notch2 and Delta respectively. Cells that expressed mouse Notch were also transfected with 2 plasmids, pTP1-Luc and pCMV-RLuc, to express firefly and Renilla luciferase. Expression of firefly luciferase was under the control of TP1 promoter that responded to NICD activation.
N2-CHO cells were seeded at 1×10^5/well in 24-well plates the day before transfection. On the second day, cells were double transfected with 3 μg/well pTP1-Luc (expressing firefly luciferase) and 0.3 ng/well pCMV-RLuc (expressing Renilla luciferase). After 6 h incubation, transfected N2-CHO cells were washed and DL-CHO cells (2×10^5 cells/well) were added.
Compounds were pre-mixed with DL-CHO cell suspension in a five-point curve. Typically, compound treatment was performed in duplicate with a serial 1:10 dilution (3 μM-0.3 nM) in DMSO. The final concentration of DMSO in a given culture was 1%. Controls included non-transfected cells and transfected cells treated with a GSI or DMSO only. Luciferase assays were performed after 16 h co-culture and compound treatment.
The luciferase assay was carried out according to manufacture's instructions. Briefly, cells were washed with PBS (Phosphate Buffered Saline), lysed with Passive Lysis Buffer (Promega), and incubated at room temperature for 20 min. Lysates were mixed with Dual-Glo Luciferase Reagent and the firefly luciferase activity was measured by reading the luminescence signal in the EnVision 2101 Multilabel reader. Dual-Glo Stop & Glo Reagent was then added to each well and the Renilla luciferase signal was measured.

The test system of series [8] is Notch-processing activity of the γ-secretase-complex. Put plainly: Notch cell-free assay (NICD production from recombinant Notch substrate N99). The following applies: 1 μM test compound, 0.3-0.5 μM Notch substrate, 37° C. for 6 to 22 h, western blotting. It is filed as biochemical, mouse. As for the experimental part: The Notch transmembrane domain is cleaved by gamma secretase to release
Notch Intracellular C-terminal Domain (NICD).
To monitor the effect of compounds on NICD production, a recombinant Notch substrate (N99) was prepared. The Notch substrate, comprised of mouse Notch fragment (V1711-E1809), an N-terminal methionine and a C-terminal FLAG sequence ([…]), was expressed in E. coli and purified on a column containing an anti-FLAG M2 affinity matrix.
A typical Notch cell-free assay consisted of 0.3-0.5 μM Notch substrate, an enriched preparation of γ secretase and 1 μM of a test compound (compounds 8, 15, 92, 108, 114 and 130 of the present invention). Controls included a γ secretase inhibitor (GSI), such as (2S)—N-[2-(3,5-difluorophenyeacetyl]-L-alanyl-2-phenyl-glycine 1,1-dimethylethyl ester (DAPT) or (2S)-2-hydroxy-3-methyl-N-[(1S)-1-methyl-2-oxo-2-[[(1S)-2,3,4,5-tetrahydro-3-methyl-2-oxo-1H-3-benzazepin-1-yl]amino]ethyl]-butanamide (Semagacestat), and DMSO, the final concentration of DMSO being 1%. Recombinant Notch substrate was pre-treated with 17 μM DTT (1,4-dithiothreitol) and 0.02% SDS (Sodium Dodecyl Sulfate) and heated at 65° C. for 10 min. The mixture of substrate, gamma secretase and compound/DMSO was incubated at 37° C. for 6 to 22 hours (h). 6 h incubation was sufficient to produce the maximal amount of NICD and the cleaved product remained stable for an additional 16 h. Reaction products were processed for SDS PAGE (Sodium Dodecyl Sulfate-Poly Acrylamide Gel Electrophoresis) and western blotting. Blots were probed with an anti-Flag M2 antibody, followed by LI-COR infrared secondary antibody, and analyzed with the Odyssey Infrared Imaging System (LI-COR® Biosciences).
Background: In western blotting, separated proteins are transferred to a membrane and probed.

[9] abbreviates: Table 3a, 18 hours, XLfit, top/bottom fixed to 100 and 0, hill slope 1.
Where [10] appears, read: Table 3b, non-linear regression of % of control, averaged IC50 values.

`Cc1cn(-c2ncc(Nc3cccc4c3nc(-c3ccc(F)cc3)n4C)cn2)cn1` [Compound 6] had a melting point of 201.7 °C. In series [1] (setting [9]), this molecule displayed an IC50 of 29 nM. The molecule further showed an IC50 in [1] (setting [10]) of 28 nM. In series [2], the “Aβtotal (% Ctrl) _Mean” value is listed as 91 % Ctrl. The molecule further gave an IC50 in [3] (setting [9]) above 1000 nM. The molecule also registered an IC50 in series [3] (setting [10]) above 3000 nM. Moreover, the “Aβ42 (% Ctrl) _Mean” value in series [4] was found to be 66 % Ctrl.

Turning to `COc1cc(Nc2cccc3c2nc(N2CCC(F)(F)CC2)n3C)ccc1-n1cnc(C)c1` [Compound 12], the melting point came to 81.2 °C. The molecule also registered a half-maximal inhibitory concentration (IC50) in series [1] (setting [9]) of 84 nM. Also, the half-inhibitory concentration (IC50) in series [1] (setting [10]) was 76 nM. Moreover, the IC50 in [3] (setting [9]) was above 3000 nM. The IC50 in series [3] (setting [10]) is above 3000 nM.

Turning to `COc1nc(Nc2cc(C(C)C)nc3c2nc(-c2ccc(F)cc2)n3C)ccc1-n1cnc(C)c1` [Compound 111], the melting point was 172.3 °C. Besides, the IC50 in series [5] was 4790 nM. Moreover, in series [6], inhibition was half-maximal at 4 nM (IC50).

Molecule `CC(=O)Nc1cccc(-c2nc3c(Nc4ccc(-n5cnc(C)c5)c(F)c4)nc(C)cc3n2C)c1` [Compound 141] registered a melting point of 257.2 °C. The IC50 in series [5] was above 10000 nM. Further, the IC50 in series [6] was 79 nM.

For `CC(NC(=O)Cc1cc(F)cc(F)c1)C(=O)NC(C(=O)OC(C)(C)C)c1ccccc1` [DAPT, (2S)—N-[2-(3,5-difluorophenyeacetyl]-L-alanyl-2-phenyl-glycine 1,1-dimethylethyl ester, reference compound], the half-maximal inhibitory concentration (IC50) in series [7] is 45 nM. In series [8], the “effect on the Notch-processing activity of the γ-secretase-complex (production of NICD)” value was “blocked”.

On to `CC(C)[C@H](O)C(=O)N[C@@H](C)C(=O)N[C@@H]1C(=O)N(C)CCc2ccccc21` [Semagacestat, (2S)-2-hydroxy-3-methyl-N-[(1S)-1-methyl-2-oxo-2-[[(1S)-2,3,4,5-tetrahydro-3-methyl-2-oxo-1H-3-benzazepin-1-yl]amino]ethyl]-butanamide, reference compound], for which, in [7], the IC50 was 40 nM. Further, in [8], the “effect on the Notch-processing activity of the γ-secretase-complex (production of NICD)” value is listed as “blocked”.
